Results on ten compounds are retold here after paper PMC3731256, “Optimization of Substituted 6-Salicyl-4-Anilinoquinazoline Derivatives as Dual EGFR/HER2 Tyrosine Kinase Inhibitors” (PLoS ONE, 2013).

Data set [1] addresses T1, human EGFR (Homo sapiens, UniProt P00533).
T1 construct: the cytoplasmic domain (amino acids 669-1210) of human EGFR; FLAG (DYKDDDD) (N); made in house
The experiment in a line: EGFR kinase assay ([γ-32P] ATP, poly-Glu-Tyr). The settings on record: phosphorylation of poly-Glu-Tyr copolymer; mean, >1 determination; read-out: Enzyme activity IC50 against EGFR kinase. It counts as biochemical. How it is done: (§1) The expressed HER2 kinase and EGFR kinase were purified by anti-FLAG M2 affinity gel (Sigma-Aldrich, USA). The HER2 and EGFR kinase assays were performed using radiolabeled [γ-^32P] ATP (GEHealthcare, USA) in 96-well plates. The kinase reactions were performed in 50 mmol/L Tris-HCl, pH7.5, 5 mmol/L MnCl2, 0.01% Tween-20 and 2 mmol/L DTT containing 0.9 μCi of [γ-^32P] ATP per reaction, 50 μmol/L ATP, 5 μg/mL poly-Glu-Tyr (4:1) and 0.25 μg/mL of purified Her2 or EGFR cytoplasmic domain in a total volume of 50 μL. […] Kinase reactions were initiated by adding ATP. After the kinase reaction incubated for 10 minutes at room temperature, reactions were terminated by the addition of 10% (final concentration) trichloroacetic acid. The [γ-^32P]-phosphorylated proteins were filtered in a harvest plate (Millipore, USA) with a cell harvester (PerkinElmer, USA) and washed free of [γ-^32P] ATP with 3% phosphoric acid. The plates were dried, followed by the addition of 25 μL of MicroScintO (PerkinElmer, USA). Radioactivity was counted by a Topcount scintillation counter (PerkinElmer, USA).

Data set [2] relates to A549 cells. The experiment in a line: Antiproliferation WST-1 assay, A549. The data set is classed as cell-based, human. How it is done: (§2) WST-1 is better than MTT for analyzing cell proliferation, because it can be reduced to soluble formazan by dehydrogenase in mitochondria and has little toxicity to cells. Cell proliferation was determined using WST-1 dye (Beyotime Inst Biotech, China) according to manufacture’s instructions. Brieﬂy, 5 × 10^3 cells per well were seeded in a 96-well plate, grown at 37 ℃ for 24 h, and then placed in serum-starved conditions for a further 6 h. Subsequently, cells were treated with compounds (Table 1) at increasing concentrations in the presence of 10% FBS for 24 or 48h. After 10 µL WST-1 dye was added to each well, cells were incubated at 37 ℃ for 2 h and the absorbance was ﬁnally determined at 450 nm using a microplate reader.

Data set [3] deals with A431 cells. Put plainly: Antiproliferation WST-1 assay, A431. It counts as cell-based, human. The procedure:
as §2

Data set [4] has as its target T2, human HER2 (Homo sapiens, UniProt P04626).
T2 construct: The cytoplasmic domain (amino acids 676-1255) of human HER2; FLAG (DYKDDDD) (N); made in house
Put plainly: HER2 kinase assay ([γ-32P] ATP, poly-Glu-Tyr). As to conditions: phosphorylation of poly-Glu-Tyr copolymer; mean, >1 determination; read-out: Enzyme activity IC50 against HER2 kinase. It counts as biochemical. The procedure: as §1

Data set [5] has as its system MCF-7 cells. Put plainly: Antiproliferation WST-1 assay, MCF-7. It counts as cell-based, human. The procedure: as §2
The mark [6] stands for this setting: WST-1 assay, A549 carcinomic human alveolar basal epithelial cell, read-out: Cellular IC50, A549.
Where [7] appears, read: Homo sapiens, A-431, WST-1 assay, A431, overexpression of EGFR, read-out: Cellular IC50, A431.
[8] abbreviates: Homo sapiens, MCF7, WST-1 assay, MCF-7 breast cancer, Her2/neu overexpression, read-out: Cellular IC50, MCF-7.

Where two headings read alike, the source gives them in different places. Bounds are passed on as bounds.

T1 sequence (P00533 669-1210): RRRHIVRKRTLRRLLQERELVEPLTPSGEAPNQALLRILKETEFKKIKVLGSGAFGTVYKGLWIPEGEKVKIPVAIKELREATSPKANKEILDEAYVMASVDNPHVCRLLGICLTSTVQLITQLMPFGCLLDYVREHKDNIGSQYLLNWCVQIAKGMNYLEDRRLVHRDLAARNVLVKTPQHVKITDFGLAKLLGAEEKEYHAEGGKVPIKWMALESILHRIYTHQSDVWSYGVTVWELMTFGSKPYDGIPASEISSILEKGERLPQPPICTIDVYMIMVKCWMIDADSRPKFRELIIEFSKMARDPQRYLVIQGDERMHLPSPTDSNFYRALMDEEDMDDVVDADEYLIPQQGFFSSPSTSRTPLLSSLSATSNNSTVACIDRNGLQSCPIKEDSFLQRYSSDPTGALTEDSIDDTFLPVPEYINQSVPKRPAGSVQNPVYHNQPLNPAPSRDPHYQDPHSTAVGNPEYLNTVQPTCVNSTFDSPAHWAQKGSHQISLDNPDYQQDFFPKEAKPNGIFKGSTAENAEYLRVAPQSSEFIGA
T2 sequence (P04626 676-1255): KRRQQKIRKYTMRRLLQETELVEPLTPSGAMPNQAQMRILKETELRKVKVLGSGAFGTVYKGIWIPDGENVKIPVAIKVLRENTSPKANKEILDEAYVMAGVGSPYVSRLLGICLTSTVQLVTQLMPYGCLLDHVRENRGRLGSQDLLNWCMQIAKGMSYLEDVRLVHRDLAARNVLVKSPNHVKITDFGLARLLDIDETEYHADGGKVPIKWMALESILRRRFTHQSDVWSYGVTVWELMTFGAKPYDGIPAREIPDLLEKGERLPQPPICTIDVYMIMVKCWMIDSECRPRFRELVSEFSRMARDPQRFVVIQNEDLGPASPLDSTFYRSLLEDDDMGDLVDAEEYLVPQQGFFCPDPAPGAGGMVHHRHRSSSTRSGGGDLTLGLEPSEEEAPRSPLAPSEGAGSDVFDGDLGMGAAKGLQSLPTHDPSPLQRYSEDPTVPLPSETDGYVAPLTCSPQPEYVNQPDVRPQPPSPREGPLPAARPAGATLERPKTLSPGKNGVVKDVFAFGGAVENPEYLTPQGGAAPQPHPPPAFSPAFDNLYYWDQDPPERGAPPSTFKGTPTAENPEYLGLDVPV

For the compound `Oc1c(Br)cc(Br)cc1CNc1ccc2ncnc(Nc3cccc(Cl)c3)c2c1` [Compound 16, 2,4-dibromo-6-((4-(3-chlorophenylamino)quinazolin-6-ylamino)methyl)phenol], the melting point was in the range of 207 to 209 °C. The IC50 in data set [1] worked out at 890 ± 53 nM. For the same compound, the IC50 in data set [2] (setting [6]) was 1650 ± 94 nM. In data set [3] (setting [7]), the IC50 was determined as 1320 ± 126 nM. Further, the IC50 in data set [4] came to 2100 ± 8.7 nM. For the same compound, in data set [5] (setting [8]), the IC50 amounted to 990 ± 6 nM.

In turn, `Oc1c(Cl)cc(Cl)cc1CNc1ccc2ncnc(Nc3cccc(Br)c3)c2c1` [Compound 10, 2-((4-(3-bromophenylamino)quinazolin-6-ylamino)methyl)-4,6-dichlorophenol] registered a melting point of 214 to 216 °C. The IC50 in data set [1] is 720 ± 36 nM. Also, the IC50 in data set [2] (setting [6]) is 1930 ± 71 nM. Moreover, the IC50 in data set [3] (setting [7]) came out at 1030 ± 27 nM. For the same compound, in data set [4], the IC50 is 1100 ± 95 nM. Besides, the IC50 in data set [5] (setting [8]) was determined as 840 ± 4 nM.

Compound `O=C(Nc1ccc2ncnc(Nc3cccc(Br)c3)c2c1)c1cc(Br)cc(Br)c1O` [Compound 20, 3,5-dibromo-N-(4-(3-bromophenylamino)quinazolin-6-yl)-2-hydroxybenzamide] registered a melting point of 274 to 276 °C. In addition, the IC50 in data set [1] stood at 1400 ± 23 nM. Further, the IC50 in data set [2] (setting [6]) was found to be 1800 ± 167 nM. Moreover, in data set [3] (setting [7]), the IC50 came to 1390 ± 23 nM. Further, in data set [4], the IC50 stood at 2100 ± 66 nM. In addition, in data set [5] (setting [8]), the IC50 amounted to 1310 ± 29 nM.

Consider `O=C(Nc1ccc2ncnc(Nc3cccc(Br)c3)c2c1)c1ccc(Cl)cc1` [Compound 27, N-(4-(3-bromophenylamino)quinazolin-6-yl)-4-chlorobenzamide], for which the melting point lay within 230 to 232 °C. For the same compound, in data set [1], the IC50 turned out to be 7700 ± 88 nM. Besides, the IC50 in data set [2] (setting [6]) amounted to 1780 ± 34 nM. In addition, in data set [3] (setting [7]), the IC50 was 1480 ± 34 nM. In addition, in data set [4], the IC50 worked out at 4600 ± 226 nM. In addition, the IC50 in data set [5] (setting [8]) stood at 1290 ± 76 nM.

For the compound `Oc1c(Cl)cc(Cl)cc1CNc1ccc2ncnc(Nc3cccc(Cl)c3)c2c1` [Compound 14, 2,4-dichloro-6-((4-(3-chlorophenylamino)quinazolin-6-ylamino)methyl)phenol], the melting point lay in the range of 211 to 213 °C. In addition, the IC50 in data set [1] stood at 650 ± 9 nM. Moreover, the IC50 in data set [2] (setting [6]) is 1590 ± 38 nM. Moreover, in data set [3] (setting [7]), the IC50 was determined as 920 ± 62 nM. For the same compound, the IC50 in data set [4] was 920 ± 9 nM. The IC50 in data set [5] (setting [8]) stood at 800 ± 5 nM.

On to `Oc1ccc(Br)cc1CNc1ccc2ncnc(Nc3cccc(Cl)c3)c2c1` [Compound 15, 4-bromo-2-((4-(3-chlorophenylamino)quinazolin-6-ylamino)methyl)phenol], for which the melting point lay within 227 to 229 °C. The IC50 in data set [1] was determined as 760 ± 73 nM. Moreover, the IC50 in data set [2] (setting [6]) worked out at 2120 ± 22 nM. In data set [3] (setting [7]), the IC50 was determined as 960 ± 5 nM. Besides, in data set [4], the half-maximal inhibitory concentration (IC50) amounted to 3800 ± 2 nM. In addition, the IC50 in data set [5] (setting [8]) turned out to be 810 ± 33 nM.

With `Oc1ccc(Cl)cc1CNc1ccc2ncnc(Nc3cccc(Br)c3)c2c1` [Compound 9, 2-((4-(3-bromophenylamino)quinazolin-6-ylamino)methyl)-4-chlorophenol], the melting point lay in the range of 230 to 232 °C. In addition, in data set [1], the IC50 came out at 410 ± 24 nM. Also, the IC50 in data set [2] (setting [6]) was determined as 2370 ± 89 nM. The IC50 in data set [3] (setting [7]) is less than 1000 nM. In addition, the IC50 in data set [3] (WST-1 assay, A431, overexpression of EGFR, read-out: Cellular IC50, A431) came to 980 ± 3 nM. In data set [4], the IC50 was 1700 ± 51 nM. For the same compound, the IC50 in data set [5] (setting [8]) is less than 1000 nM. Besides, in data set [5] (WST-1 assay, MCF-7 breast cancer, Her2/neu overexpression, read-out: Cellular IC50, MCF-7), the IC50 turned out to be 770 ± 8 nM.

Consider `O=C(Nc1ccc2ncnc(Nc3cccc(Br)c3)c2c1)c1cc(Br)ccc1O` [Compound 18, 5-bromo-N-(4-(3-bromophenylamino)quinazolin-6-yl)-2-hydroxybenzamide], for which the melting point was 297 to 299 °C. Further, the IC50 in data set [1] worked out at 1300 ± 98 nM. For the same compound, the IC50 in data set [2] (setting [6]) was 800 ± 4 nM. In addition, the IC50 in data set [3] (setting [7]) is 1620 ± 8 nM. Besides, the IC50 in data set [4] was 1600 ± 12 nM. Further, the IC50 in data set [5] (setting [8]) was determined as 1230 ± 35 nM.

With `Nc1ccc2ncnc(Nc3cccc(Br)c3)c2c1` [Compound 7, N4-(3-bromophenyl)quinazoline-4,6-diamine], the IC50 in data set [3] (Homo sapiens, A-431, read-out: Cellular IC50, A431) was less than 1000 nM; in data set [5] (setting [8]) it was less than 1000 nM.

As to `C#Cc1cccc(Nc2ncnc3cc(OCCOC)c(OCCOC)cc23)c1` [Erlotinib, reference compound], the IC50 in data set [2] (Homo sapiens, A549, read-out: Cellular IC50, A549) came to 920 ± 13 nM; in data set [5] (Homo sapiens, MCF7, read-out: Cellular IC50, MCF-7), 1070 ± 28 nM.
